EP0451834B1, “Alpha-mannosidase and fucosidase inhibitors” (MERRELL PHARMACEUTICALS INC., priority 1990, dated 1991)

Biological target: T1, α-Mannosidase (Jack bean) (Canavalia ensiformis, UniProt C0HJB3)
T1 sequence (C0HJB3 1-981): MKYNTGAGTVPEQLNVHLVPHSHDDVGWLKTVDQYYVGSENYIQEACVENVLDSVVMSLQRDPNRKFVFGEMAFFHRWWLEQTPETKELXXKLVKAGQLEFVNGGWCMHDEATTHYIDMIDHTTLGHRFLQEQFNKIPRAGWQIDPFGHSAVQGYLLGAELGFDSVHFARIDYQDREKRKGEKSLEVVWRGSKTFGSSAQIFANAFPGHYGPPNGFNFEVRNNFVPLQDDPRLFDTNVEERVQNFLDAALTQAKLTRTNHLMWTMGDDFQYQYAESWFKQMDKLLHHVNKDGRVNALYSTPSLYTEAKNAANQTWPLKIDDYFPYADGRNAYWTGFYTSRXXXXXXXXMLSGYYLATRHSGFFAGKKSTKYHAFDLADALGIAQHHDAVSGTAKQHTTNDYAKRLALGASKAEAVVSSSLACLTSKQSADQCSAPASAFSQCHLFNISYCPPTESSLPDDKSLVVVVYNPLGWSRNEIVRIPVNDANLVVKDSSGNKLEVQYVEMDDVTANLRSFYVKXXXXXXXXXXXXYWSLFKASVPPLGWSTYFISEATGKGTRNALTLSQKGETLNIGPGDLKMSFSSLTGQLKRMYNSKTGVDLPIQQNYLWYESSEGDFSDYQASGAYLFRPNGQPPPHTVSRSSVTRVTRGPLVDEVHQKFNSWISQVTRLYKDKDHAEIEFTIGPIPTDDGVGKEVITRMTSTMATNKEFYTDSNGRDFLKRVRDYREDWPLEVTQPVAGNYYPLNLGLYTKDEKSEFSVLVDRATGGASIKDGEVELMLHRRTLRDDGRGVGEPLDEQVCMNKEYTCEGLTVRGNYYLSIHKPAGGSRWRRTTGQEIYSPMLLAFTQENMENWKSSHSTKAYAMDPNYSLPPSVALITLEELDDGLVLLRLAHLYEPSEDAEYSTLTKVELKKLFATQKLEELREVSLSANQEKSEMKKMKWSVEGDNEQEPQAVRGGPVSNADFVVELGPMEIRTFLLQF
Assay: Mannosidase screening assay (p-nitrophenyl-α-mannopyranoside substrate, absorbance at 405 nm)
Format: biochemical
Settings: Jack bean enzyme, sodium acetate buffer pH 4.5, 37° for 30 min
Method: This can be demostrated by the ability of the compound to inhibit Jack bean mannosidase or mannosidase II as follows: Mannosidase Screening Assay (Kang, et al., Plant Physiol. 71:551-554 (1983)). Activities of mannosidase are first screened with Jack bean enzyme using p-nitrophenyl substrate as follows using a 96-well microplate. Total Rxn mix 200µl. • 1. Add compounds to be tested and dilute to 100µl with H2O. • 2. Add 25µl of 1M sodium acetate buffer pH 4.5 containing 10mM ZnCl2. • 3. Add 25µl of enzyme or approximately 0.05 µg protein. • 4. Mix and incubate at R.T. for 30 min. • 5. Add 50µl of 10 mM p-nitrophenyl-α-mannopyranoside in H2O to start the Rxn and incubate 37° for 30 min. Stop reaction by addition 100µl of 0.2M (2%) sodium carbonate solution (pH∼12). Read absorbance at 405 nm.

Question: For `CN[C@@H]1[C@@H](O)[C@@H](O)[C@H](O)[C@H]1CO` [1,3β,5β,R=CH3, (1α,2β,3β,4α,5β)-Methyl[2,3,4-trihydroxy-5-(hydroxymethyl)cyclopentyl]amine], which IC50 is on record?
Answer: 62.1 nM
